# Measured values as given in patent US8435393B2, “Instrument and system for pharmacologic measurement and well vessel used therein” (Panasonic Corporation, priority 2003, dated 2013).
# Columns and labels:
# [1] = test system: carbachol (CCh) sensitive ion channel; assay: Intracellular potential response of an HEK cell by the patch clamp method (Comparative Example 2); format: cell-based, human; conditions: HEK-293 cell expressing CCh sensitive ion channel; CCh 100 μM; in 6 sec after CCh is dropped; glass patch pipette
# Protocol: (§1) The solution holding section 17 was filled with a culture fluid and 8000 HEK cells are seeded in the holding section in dispersion. The culture fluid used was HEPES buffer DMEM+10 wt % FBS. A cell was sucked from the back surface to be thereby fitted into the hole and thereafter, the culture fluid was replaced with a measurement solution. A composition of the measurement solution was such that Ringer's solution was contained as a base, a Ca concentration was adjusted to 2 mM and an osmotic pressure was set to […].
# In FIG. 13, as Comparative Example 2, there is shown results obtained by measurement of a response of an intracellular potential in an HEK cell for the same medicine in a similar way while a glass patch pipette is attached to the cell using a patch clamp method, which is a conventional method for measurement of an intracellular potential. A CCh concentration was 100 μM in a similar way. […] There is observed a noise change (from F to G in FIG. 13) due to a CCh sensitive channel response.
# [2] = test system: carbachol (CCh) sensitive ion channel; assay: Extracellular potential (voltage noise) recording of HEK cells with the instrument of Example 1; format: cell-based, human; conditions: HEK-293 cells; Ringer's solution replaced with Ringer's solution containing CCh 100 μM; FIG. 11 between F1 and G1
# Protocol: as §1
# FIG. 11 is a graph showing a voltage noise when the above Ringer's solution was replaced with a Ringer's solution containing CCh 100 μM using Example 1. […] It was recognized that a voltage noise is increased by CCh dropping (in FIG. 11, between F1 and G1). On the other hand, in FIG. 12, there is shown results obtained by conducting a similar experiment in a convention method (Comparative Example 1). The measurement was obtained in a procedure in which a first stage amplification in the preamplifier was multiplication by a factor of 100 and thereafter further amplified by a factor of 100. LPF was set at 5 kHz. A medicine (CCh) was dropped only for a time expressed with an open square in the figure.
smiles,measurement,setting,value
"C[N+](C)(C)CCOC(N)=O [CCh, carbachol]",Depolarization of intracellular potential,[1],about 10 mV
same,Voltage noise change on CCh dropping,[2],increased
